Entries after “also recorded” stand apart in the source; their conditions may differ. Where a name gives a salt, the structure may show the parent alone.
Key:
[1] = tested on: N. gonorrhea; experiment: Bacterial inhibition assay, N. Gonorrhea growth; assay type: cell-based; conditions: tested at 1, 3 and 10 μM, result in words
Experimental: (§1) Compounds of the invention (see Table 1 and FIG. 3) were assayed for their ability to inhibit bacterial growth. Compounds were diluted from 10 mM DMSO stocks to 3 mM and 1 mM in DMSO. The compounds were further diluted from these stocks into saline for 200, […], and 20 μM stocks. Control antibiotics were diluted similarly. Overnight cultures of bacteria were made in the following manner. N. gonorrhea was streaked onto a chocolate agar plate and incubated at 35° C./5% CO2. A loopful from a stock plate of E. coli was added to 3 mL TSB medium, vortexed and incubated at 37° C. in the absence of CO2. An S. aureus culture was made as described for the E. coli culture, except that a nutrient broth was used instead of TSB medium. […]
(§2) On the following day bacteria were prepared by dilution into saline with O.D. 625 nM readings taken to determine the concentration of the bacteria. CFUs (colony forming units) were determined using the formula: CFU/mL=OD625×(1.5×10^8 CFU/mL/OD McFarland std)×dilution. […] Plates were incubated at 35° C. with O2 for 16-20 hours for S. aureus, S. pyogenes, and E. coli and read at OD665 in the Victor2 plate reader. […] The plates were read at OD490. […] The results, which are expressed as a percentage of the control, were calculated using equation 2. […]

[2] = tested on: bacterial growth (N. gonorrhea, E. coli, S. aureus, S. pyogenes); experiment: Bacterial inhibition assay (species not stated); assay type: cell-based; conditions: tested at 1, 3 and 10 μM; species not given, refers to FIGS. 1A-2
Experimental: The ability of compounds of the invention to inhibit bacterial growth can also be assessed by standard testing procedures, such as monitoring bacterial growth in the presence of one or more candidate compound. Any reduction in bacterial growth, in comparison to an uninhibited control, is a measure of the antibacterial activity of the compound. The antibacterial activity of some compounds of the invention were measured against N. gonorrhea, E. coli, S. aureus, and S. pyogenes (Example 23).
Compounds of the invention (see Table 1 and FIG. 3) were assayed for their ability to inhibit bacterial growth. Compounds were diluted from 10 mM DMSO stocks to 3 mM and 1 mM in DMSO. The compounds were further diluted from these stocks into saline for 200, 120, and 20 μM stocks. Control antibiotics were diluted similarly. Overnight cultures of bacteria were made in the following manner. N. gonorrhea was streaked onto a chocolate agar plate and incubated at 35° C./5% CO2. A loopful from a stock plate of E. coli was added to 3 mL TSB medium, vortexed and incubated at 37° C. in the absence of CO2. An S. aureus culture was made as described for the E. coli culture, except that a nutrient broth was used instead of TSB medium. Rather than make an overnight culture of S. pyogenes, a loopful of S. pyogenes from a blood plate or a stock plate was used the following day for direct cell suspension.
On the following day bacteria were prepared by dilution into saline with O.D. 625 nM readings taken to determine the concentration of the bacteria. CFUs (colony forming units) were determined using the formula: CFU/mL=OD625×(1.5×10^8 CFU/mL/OD McFarland std)×dilution. The four bacterial cultures were diluted initially to 5.5×10^7 CFU/mL. The bacteria were then further diluted into medium to 5.5×10^5 CFU/mL for S. aureus, S. pyogenes and E. coli and 5.5×10^6 CFU/mL for N. gonorrhea. S. aureus and E. coli are grown in CAMHB medium and S. pyogenes and N. gonorrhea in CAMHB-3% LHB medium. The bacteria were added one per plate at 200 μL per well. Compounds were added in 10 μL for final concentrations of 10, 3 and 1 μM in duplicate. Control antibiotics for S. aureus, oxacillin; for S. pyogenes, penicillin; for E. coli, ampicillin; and for N. gonorrhea, ciprofloxacin were added from 0.8 mg/ml to 0.003 mg/ml. Plates were incubated at 35° C. with O2 for 16-20 hours for S. aureus, S. pyogenes, and E. coli and read at OD665 in the Victor2 plate reader. Plates were incubated at 35° C. with 5% CO2 for 24 hours for N. gonorrhea at which time 40 μL of MTS reagent is added per well and incubated for 1 hour in same incubator. The plates were read at OD490. Compounds were tested at 1 μM, 3 μM, and 10 μM concentrations. The results, which are expressed as a percentage of the control, were calculated using equation 2. […]

[3] = tested on: N. gonorrhea RNase P (M1 RNA and C5 protein); experiment: RNase P inhibition assay (fluorescence polarization, ptRNA Gln cleavage); assay type: biochemical; conditions: tested at 0.3, 1, 3 and 10 μM, result in words, numbers only in figures
Text: The ability of compounds of the invention to inhibit RNase P enzymes can be assessed by standard techniques. For example, the cleavage of ptRNA^Gln by the enzyme N. Gonorrhea RNase P, can be monitored in the presence and absence of a candidate compound as described in the Example 23. The progress of the RNase P-mediated cleavage reaction can be assessed by measuring the fluorescence polarization level of the TAMRA moiety hybridized to the cleaved substrate
Compounds of the invention (see Table 1 and FIG. 3) were assayed for inhibition of RNase P activity. The assay components were the M1 RNA and C5 protein from N. gonorrhea and a model precursor tRNA substrate derived from Synechocystis ptGLN. The compounds were diluted in assay buffer (50 mM Tris-HCl, pH 7.5/100 mM […]/10 mM MgCl2/1 mM DTT/1 mg/ml BSA) from 2 μL of a 1 mM DMSO stock solutions in 384 well polypropylene plates to a concentration of 40 μM. 12.5 μL of each compound dilution was transferred to empty duplicate wells of two 384-well black polystyrene assay plates. One assay plate received 37.5 μL of assay buffer plus 12.5 μL of stop buffer (25 mM EDTA/1.25×SSC Buffer in PA buffer; SSC=150 mM NaCl, 15 mM sodium citrate and PA=50 mM TRIS hydrochloride, 100 mM ammonium chloride, 10 mM magnesium chloride) and was read immediately on a LJL Analyst fluorimeter to serve as a background fluorescence plate. The other plate sequentially received the following reagents diluted in assay buffer, 12.5 μL of 0.4 nM M1 RNA, 12.5 μL of 2 nM C5 protein, and 12.5 μL of 160 nM substrate. Wells were included that receive neither the M1 RNA nor the C5 protein to serve as no-enzyme controls. The enzymatic reaction was allowed to proceed for 30 minutes and was stopped by the addition of 12.5 μL per well of stop buffer containing 20 nM of a DNA-5′ TAMRA probe complementary to the 5′ end of the substrate. The probe was allowed to hybridize to the substrate for 2 hours, and the polarization status of the probe was measured using the LJL Analyst fluorimeter. All compounds were tested at 0.3 μM, 1 μM, 3 μM, and 10 μM concentrations. The results, which are expressed as a percentage of the control, were calculated using equation 1. In this equation, f is the fluorescence in counts per second; (f.enzyme+probe) is the fluorescence observed when enzymatic activity is uninhibited; (f.probe) is the fluorescence observed without enzymatic activity; and (f.compound+enzyme+probe) is the fluorescence observed when the enzymatic activity is modulated by a compound of the invention. Assay results for MES 35793 are shown in FIG. 7, and assay results for MES 31242, MES 82794, and MES 35793 are shown in FIG. 8. Other candidate RNase P inhibitors may be tested similarly using any RNase P holoenzyme and any appropriate RNase P substrate. [formula]

[4] = tested on: S. aureus; experiment: Bacterial inhibition assay, S. aureus growth; assay type: cell-based; conditions: tested at 1, 3 and 10 μM, result in words
Experimental: as §1, §2

SMILES | inhibition of bacterial growth, N. Gonorrhea growth data [1] | inhibitors of bacterial growth (summary statement) [2] | inhibition of RNase P activity (fluorescence data, percentage of the control) [3] | inhibition of RNase P activity (fluorescence data, percentage of the control) ([3]; listed as MES10609) | inhibition of bacterial growth, S. aureus data [4] | inhibition of RNase P activity (fluorescence data, percentage of the control) ([3]; listed as MES10636)
C/C(=N\NC(=N)N)c1cccc(C(=O)NCCNC(=O)c2cccc(/C(C)=N/NC(=N)N)c2)c1 [MES 10609, bisguanylhydrazone of N-(N′-2-(3-acetylbenzamido)-ethyl)-3-acetylbenzamide] | can inhibit bacterial growth | inhibitors of bacterial growth | can inhibit RNase P activity | inhibitors of RNase P activity | – | –
C/C(=N\NC(=N)N)c1ccc(NC(=O)CNC(=O)c2cccc(/C(C)=N/NC(=N)N)c2)cc1 [MES 10635, Bisguanylhydrazone trifluoroacetic acid salt of N′-(3-acetylbenzoyl)-N-(4-acetylphenyl)glycinamide] | – | inhibitors of bacterial growth | inhibitors of RNase P activity; also recorded: can inhibit a representative RNase P | – | can inhibit bacterial growth | –
C/C(=N\NC(=N)N)c1ccc(NC(=O)[C@H](Cc2ccccc2)NC(=O)c2cccc(/C(C)=N/NC(=N)N)c2)cc1 [MES 10636, Bisguanylhydrazone trifluoroacetic acid salt of N′-(3-acetylbenzoyl)-N-(4-acetylphenyl)phenylalaninamide] | – | inhibitors of bacterial growth | can inhibit a representative RNase P | – | can inhibit bacterial growth | inhibitors of RNase P activity
CCN1/C(=C/C=C/c2sc3c4ccccc4ccc3[n+]2CC)Sc2cc(C)c(C)cc21 [MES 31242] | – | – | can inhibit a representative RNase P | – | – | –
CCN1/C(=C\C=c2/s/c(=C\c3sc4ccccc4[n+]3CC)n(CC)c2=O)Sc2ccccc21 [MES 35793] | can inhibit bacterial growth | inhibitors of bacterial growth | can inhibit RNase P activity; also recorded: can inhibit a representative RNase P | – | – | –
CCN1/C(=C/c2sc3ccc(O)cc3[n+]2CC)C=Cc2ccc(C)cc21 [MES 82794] | – | – | can inhibit a representative RNase P | – | – | –
